Data reported in patent US20210353579A1, “HIGH PENETRATION COMPOSITIONS AND USES THEREOF” (Techfields Pharma Co., Ltd., priority 2006, published 2021).
Like-named read-outs stand apart in the source and are kept apart here.

Experiments:
[1] = tested on: human skin tissue; conditions: pH 7.4
[2] = Plasma levels after transdermal administration to hairless mice; type: in vivo; conditions: for Peak plasma concentration of parent compound after prodrug compound / t, time to peak plasma level of parent compound after prodrug compound: mouse, in vivo
Method: Tested compounds (20% solution or suspension in 1 mL isopropanol) are administered transdermally to the skin of intact hairless mice. The plasma levels of the parent compounds are determined by HPLC.

[3] = in vivo; conditions: rat
Method: (§1) The acute toxicity of the prodrug compounds and parent compounds are measured by LD50 of rat.

[4] = tested on: mice; test: Analgesic activity, acetic acid writhing; type: in vivo
Method: The prodrug compounds are administered either transdermally or orally. The parent compounds are administered orally. The number of writhing that occurred when mice are administered the acetic acid solution are counted, and the rate of inhibition based on the control group which was not pretreated with any test compounds is calculated. […] The A group is the control group.

[5] = tested on: rat
Method: as §1

[6] = tested on: rats; test: Antipyretic activity, E. coli suspension as pyrogen; type: in vivo; conditions: in °C (unit assumed)
Method: Rats are administered with sterilized E. coli suspension as a pyrogen. Each group of rats are administered with a prodrug compounds or parent compounds at a dosage specified below. The prodrug compounds are administered either orally or transdermally. The parent compounds are administered orally.

[7] = Solubility in water / aqueous solubility of HPPs and parent drugs; conditions: product as prepared in Example 1
[8] = 50 mg/kg transdermally, 30 min before acetic acid
[9] = 100 mg/kg transdermally, 60 minutes before acetic acid
[10] = 100 mg/kg transdermally, 30 min before acetic acid
[11] = 50 mg/kg transdermally, 60 minutes before acetic acid
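For LD50 in this document: acute toxicity in rats expressed as LD50, determined for both prodrugs and their parent compounds.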
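For LD50 of HPP in this document: acute toxicity in rats expressed as LD50, determined for both prodrugs and their parent compounds.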

| Compound | In vitro penetration rate (apparent flux), prodrug compounds [1] [μg/cm^2/h] | LD50 of HPP ([5]; rats) [mg/kg] | Peak plasma concentration of parent compound after prodrug compound [2] [mg/L] | t, time to peak plasma level of parent compound after prodrug compound [2] [min] | body temperature, t = 0 min ([6]; 100 mg/kg transdermally) | body temperature, t = 90 min ([6]; 100 mg/kg transdermally) | body temperature, t = 180 min ([6]; 100 mg/kg transdermally) | body temperature, t = 270 min ([6]; 100 mg/kg transdermally) | % (rate of writhing inhibition) [4, 10] [%] | No. of Writhing [4, 10] | other results |
| --- | --- | --- | --- | --- | --- | --- | --- | --- | --- | --- | --- |
| O=C(O)Cc1sc(-c2ccccc2)nc1-c1ccc(Cl)cc1 [Fentiazac, fentiazac, reference compound] |  |  |  |  |  |  |  |  |  |  | In vitro penetration rate (apparent flux), parent compounds ([1]; human, 20 %): 10 μg/cm^2/h; t, time to peak plasma level after parent compound ([2]; parent compound administered (time when taken orally)): 1 to 2 h; Peak plasma concentration after parent compound ([2]; parent compound administered, hairless mice): 0.1 mg/L; LD50 [3]: 700 mg/kg |
| CC(=O)O.CCN(CC)CCOC(=O)C(C)c1cccc(Oc2ccccc2)c1 (stereo not drawn) [diethylaminoethyl 2-(3-phenoxyphenyl) propionate.AcOH] | 1250 | 1500 | 20 | 40 |  |  |  |  |  |  | % (rate of writhing inhibition) [4, 8]: 60%; No. of Writhing [4, 8]: 14.0; body temperature, t = 0 min ([6]; 50 mg/kg transdermally): 37.28 ± 0.06; body temperature, t = 90 min ([6]; 50 mg/kg transdermally): 36.65 ± 0.06; body temperature, t = 180 min ([6]; 50 mg/kg transdermally): 36.58 ± 0.08; body temperature, t = 270 min ([6]; 50 mg/kg transdermally): 36.56 ± 0.07 |
| CC(=O)O.CCN(CC)CCOC(=O)c1cccnc1Nc1cccc(C(F)(F)F)c1C [diethylaminoethyl 2-[[2-methyl-3-(trifluoromethyl)phenyl]amino]-3-pyridinecarboxylate.AcOH] | 1700 | 1100 | 20 | 50 | 37.23 ± 0.06 | 36.69 ± 0.06 | 36.52 ± 0.08 | 36.40 ± 0.07 |  |  | % (rate of writhing inhibition) [4, 9]: 55%; No. of Writhing [4, 9]: 15.7 |
| CC(=O)O.CCN(CC)CCOC(=O)Cc1cccc(C(=O)c2ccccc2)c1N [diethylaminoethyl 2-amino-3-benzoylbenzeneacetate.AcOH] | 800 | 1000 | 20 | 50 | 37.22 ± 0.06 | 36.65 ± 0.05 | 36.62 ± 0.08 | 36.58 ± 0.07 | 61 | 13.8 |  |
| CC(=O)O.CCN(CC)CCOC(=O)c1cccnc1Nc1cccc(C(F)(F)F)c1 [diethylaminoethyl 2-[[3-(trifluoromethyl)phenyl]amino]-3-pyridinecarboxylate.AcOH] | 1800 | 750 | 20 | 50 | 37.25 ± 0.07 | 36.82 ± 0.06 | 36.70 ± 0.05 | 36.50 ± 0.08 |  |  | % (rate of writhing inhibition) [4, 9]: 57%; No. of Writhing [4, 9]: 15.2 |
| 4-N,N-dimethylaminobutyryloxy-2-methyl-N-[5-Methyl-3-isoxolyl-2H-1,2-benzothiazine-3-carboxamide 1,1-dioxide].HCl | 1800 | 570 | 20 | 50 |  |  |  |  |  |  | % (rate of writhing inhibition) [4, 11]: 55%; No. of Writhing [4, 11]: 15.8; body temperature, t = 0 min ([6]; 25 mg/kg transdermally): 37.52 ± 0.06; body temperature, t = 90 min ([6]; 25 mg/kg transdermally): 36.62 ± 0.07; body temperature, t = 180 min ([6]; 25 mg/kg transdermally): 36.53 ± 0.06; body temperature, t = 270 min ([6]; 25 mg/kg transdermally): 36.60 ± 0.05 |
| CC(=O)O.CN(C)CCOC(=O)Cc1ccccc1Nc1c(Cl)cccc1Cl [dimethylaminoethyl 2[(2,6-dichlorophenyl)amino] benzene acetate.AcOH] |  |  |  |  |  |  |  |  |  |  | LD50 of HPP ([5]; rat, in vivo): 700 mg/kg; Solubility in water [7]: 410 mg/mL |
| CC(=O)O.CCN(CC)CCOC(=O)C(C)c1cccc(C(=O)c2ccccc2)c1 (stereo not drawn) [diethylaminoethyl 2-(3-benzoylphenyl) propionate.AcOH] | 1150 | 300 | 20 | 40 |  |  |  |  |  |  | % (rate of writhing inhibition) [4, 8]: 59%; No. of Writhing [4, 8]: 14.2; body temperature, t = 0 min ([6]; 50 mg/kg transdermally): 37.28 ± 0.06; body temperature, t = 90 min ([6]; 50 mg/kg transdermally): 36.65 ± 0.06; body temperature, t = 180 min ([6]; 50 mg/kg transdermally): 36.58 ± 0.08; body temperature, t = 270 min ([6]; 50 mg/kg transdermally): 36.60 ± 0.07 |
| Cc1cnc(NC(=O)C2=C(OC(=O)CCCN(C)C)c3ccccc3S(=O)(=O)N2C)s1.Cl [4-N,N-dimethylaminobutyryloxy-2-methyl-N-(5-methyl-2-thiazolyl)-2H-1,2-benzothiazine-3-carboxamide-1,1-dioxide.HCl] | 1900 | 590 | 20 |  |  |  |  |  |  |  | % (rate of writhing inhibition) [4, 11]: 48%; No. of Writhing [4, 11]: 18.2; body temperature, t = 0 min ([6]; 25 mg/kg transdermally): 37.57 ± 0.07; body temperature, t = 90 min ([6]; 25 mg/kg transdermally): 36.53 ± 0.08; body temperature, t = 180 min ([6]; 25 mg/kg transdermally): 36.52 ± 0.08; body temperature, t = 270 min ([6]; 25 mg/kg transdermally): 36.50 ± 0.07 |
| CC(=O)O.CCN(CC)CCOC(=O)C(C)c1ccc2c(c1)Cc1cccnc1O2 (stereo not drawn) [diethylaminoethyl α-methyl-5H-[1]benzopyrano[2,3-b]pyridine-7-acetate.AcOH] | 3800 |  | 2000 | 50 | 37.27 ± 0.06 | 36.76 ± 0.05 | 36.65 ± 0.08 | 36.49 ± 0.07 | 54 | 16.1 | LD50 of HPP ([5]; rat, in vivo): 750 mg/kg |
| C=C(C)CNc1ccc(C(C)C(=O)OCCN(CC)CC)cc1.CC(=O)O (stereo not drawn) [diethylaminoethyl α-methyl-4-[(2-methyl-2-propenyl)amino]benzeneacetate.AcOH] | 3500 | 1100 | 2000 | 50 | 37.23 ± 0.06 | 36.69 ± 0.06 | 36.52 ± 0.08 | 36.40 ± 0.07 | 55 | 15.6 |  |
| CC(=O)O.CCN(CC)CCOC(=O)C(C)c1ccc(C(=O)c2cccs2)cc1 (stereo not drawn) [diethylaminoethyl α-methyl-4-(2-thienylcarbonyl)benzeneacetate.AcOH] | 3000 | 800 | 2000 | 50 | 37.28 ± 0.06 | 36.65 ± 0.06 | 36.58 ± 0.08 | 36.45 ± 0.07 | 55 | 15.7 |  |
